In brackets after ≈: the same amount, converted by molar mass. Read-outs that look alike come from different tables or passages of the source.
What was measured:
[1] = system: M. avium subsp. paratuberculosis CIT03; assay: microbe, parasite or virus in culture; assay type: cell-based; details: Mycobacterium avium, 168 h, read-out: MIC, MAP CIT03
[2] = system: M. kansasii CIT11/06; assay: In vitro antimycobacterial MIC (IC90), alamarBlue 96-well assay in Middlebrook broth; assay type: cell-based, Mycobacterium kansasii; details: 7 days incubation, read-out: MIC, MK CIT11/06
[3] = system: M. avium intracellulare ATCC 13950; assay: as above; assay type: cell-based, Mycobacterium avium intracellulare; details: Mycobacterium avium, ATCC13950, 168 h, 7 days incubation, read-out: MIC, MAI ATCC 13950
[4] = system: M. avium hominissuis CIT10/08; assay: as above; assay type: cell-based, Mycobacterium avium hominissuis; details: Mycobacterium avium, 168 h, 7 days incubation, read-out: MIC, MAH CIT10/08
[5] = system: M. kansasii CNCTC My 235/80 (identical with ATCC 12478); assay: In vitro antimycobacterial MIC, dilution-micromethod in Šula semisynthetic medium; assay type: cell-based, Mycobacterium kansasii
[6] = system: M. tuberculosis CNCTC My 331/88 (identical with H37Rv and ATCC 2794); assay: as above; assay type: cell-based; details: Mycobacterium tuberculosis
[7] = system: M. avium CNCTC My 330/80 (identical with ATCC 25291); assay: as above; assay type: cell-based; details: Mycobacterium avium
[8] = system: M. kansasii 6 509/96 clinical isolate; assay: as above; assay type: cell-based; details: Mycobacterium kansasii, read-out: MIC, MK 6 509/96
[9] = Mycobacterium kansasii, CIT11/06, 168 h
[10] = Mycobacterium kansasii, ATCC12478, 168 h, 7 d cultivation, read-out: MIC, MK My 235/80
[11] = Mycobacterium kansasii, ATCC12478, 336 h, 14 d cultivation, read-out: MIC, MK My 235/80
[12] = Mycobacterium kansasii, ATCC12478, 336 h, both M. kansasii strains, depending on strain and number of days of incubation (standards: 14-d/21-d), read-out: MIC against M. kansasii My 235/80 and M. kansasii 6 509/96
[13] = Mycobacterium kansasii, ATCC12478, 504 h, 21 d cultivation, read-out: MIC, MK My 235/80
[14] = both M. kansasii strains, depending on strain and number of days of incubation (standards: 14-d/21-d), read-out: MIC against M. kansasii My 235/80 and M. kansasii 6 509/96
[15] = 336 h, 14 d cultivation, read-out: MIC, MT My 331/88
[16] = 504 h, 21 d cultivation, read-out: MIC, MT My 331/88
[17] = ATCC25291, 336 h, 14 d cultivation, read-out: MIC, MA My 330/88
[18] = ATCC25291, 504 h, 21 d cultivation, read-out: MIC, MA My 330/88

Compound	MIC [1] [µM]	MIC [2, 9] [µM]	MIC [3] [µM]	MIC [4] [µM]	MIC [5, 10] [µM]	MIC [5, 11] [µM]	MIC [5, 12] [µM]	MIC [5, 13] [µM]	MIC [5, 14] [µM]	MIC [6, 15] [µM]	MIC [6, 16] [µM]	MIC ([7]; ATCC25291, 336 h, 14-d/21-d, read-out: MIC against M. avium CNCTC My 330/80) [µM]	MIC [7, 17] [µM]	MIC [7, 18] [µM]	MIC ([8]; 168 h, 7 d cultivation) [µM]	MIC ([8]; 336 h, 14 d cultivation) [µM]	MIC ([8]; 504 h, 21 d cultivation) [µM]	MIC [2] [µM]	MIC ([6]; 336 h, 14-d/21-d cultivation, read-out: MIC against M. tuberculosis CNCTC My 331/88) [µM]
NC(=O)c1cnccn1 [PZA, pyrazinamide, reference compound]	> 2030	> 2030	> 2030	487 (≈ 60 µg/mL)	–	–	–	–	–	–	–	–	–	–	–	–	–	–	–
CC[C@@H](CO)NCCN[C@@H](CC)CO [EMB, ethambutol, reference compound]	–	–	–	–	1 (≈ 0.204 µg/mL)	2 (≈ 0.409 µg/mL)	1 (≈ 0.204 µg/mL)	2 (≈ 0.409 µg/mL)	2 (≈ 0.409 µg/mL)	1 (≈ 0.204 µg/mL)	2 (≈ 0.409 µg/mL)	16 (≈ 3.27 µg/mL)	16 (≈ 3.27 µg/mL)	16 (≈ 3.27 µg/mL)	1 (≈ 0.204 µg/mL)	2 (≈ 0.409 µg/mL)	2 (≈ 0.409 µg/mL)	–	–
O=C(O)c1cn(C2CC2)c2cc(N3CCNCC3)c(F)cc2c1=O [CPX, ciprofloxacin, reference compound]	–	> 91	–	–	–	–	–	–	–	–	–	–	–	–	–	–	–	>91	–
CC1COc2c(N3CCN(C)CC3)c(F)cc3c(=O)c(C(=O)O)cn1c23 (stereo not shown) [OFLX, ofloxacin, reference compound]	–	–	–	–	0.5 (≈ 0.181 µg/mL)	1 (≈ 0.361 µg/mL)	0.5 (≈ 0.181 µg/mL)	1 (≈ 0.361 µg/mL)	1 (≈ 0.361 µg/mL)	1 (≈ 0.361 µg/mL)	2 (≈ 0.723 µg/mL)	–	32 (≈ 11.6 µg/mL)	62.5 (≈ 22.6 µg/mL)	0.5 (≈ 0.181 µg/mL)	0.5 (≈ 0.181 µg/mL)	1 (≈ 0.361 µg/mL)	–	–
NNC(=O)c1ccncc1 [INH, isonicotinic acid hydrazide, reference compound]	> 1820	> 1820	> 1820	> 1820	> 250	> 250	–	> 250	–	0.5 (≈ 0.0686 µg/mL)	0.5 (≈ 0.0686 µg/mL)	–	> 250	> 250	4 (≈ 0.549 µg/mL)	8 (≈ 1.1 µg/mL)	8 (≈ 1.1 µg/mL)	–	0.5 (≈ 0.0686 µg/mL)

Source: publication PMC6149664, “Synthesis and In Vitro Antimycobacterial Activity of Novel N-Arylpiperazines Containing an Ethane-1,2-diyl Connecting Chain” (Molecules : A Journal of Synthetic Chemistry and Natural …, 2017)
